We go through 13 compounds from patent US10047083B2, “Dihydropyrimidinoisoquinolinones and pharmaceutical compositions thereof for the treatment of inflammatory disorders” (GALAPAGOS NV, priority 2011, dated 2018).

T1 sequence (Q9NQS5 whole entry): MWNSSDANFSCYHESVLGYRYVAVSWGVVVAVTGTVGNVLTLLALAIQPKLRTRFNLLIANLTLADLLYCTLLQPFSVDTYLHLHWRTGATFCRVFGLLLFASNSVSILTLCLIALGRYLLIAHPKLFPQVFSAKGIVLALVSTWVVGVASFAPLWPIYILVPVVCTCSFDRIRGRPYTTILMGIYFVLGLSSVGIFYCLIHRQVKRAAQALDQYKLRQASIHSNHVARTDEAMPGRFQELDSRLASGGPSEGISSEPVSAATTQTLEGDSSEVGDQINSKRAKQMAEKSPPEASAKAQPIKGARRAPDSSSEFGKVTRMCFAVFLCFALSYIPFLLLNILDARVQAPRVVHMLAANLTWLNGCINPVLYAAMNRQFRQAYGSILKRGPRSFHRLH

The assay concerns the target T1, GPR84 (Homo sapiens, UniProt Q9NQS5).
T1 construct: expressed in transfected cells; membranes used
Description: GTPγS binding assay (GPR84). It is filed as biochemical. Conditions: membranes from stable cell line over expressing GPR84; 3,3′ di indolylmethane at EC80. How it is done:
1.1. Cell Based Assay: GTp-γS Binding Assay.
The following assay can be used for determination of GPR84 activation.
The assay is performed in a 96 well plate where the following reagents are added. […] In a last step, 30 μL of a mixture consisting of membranes-GTPγS-SpA beads is added [mixture consists of 20 μg/well membranes derived from stable cell line over expressing GPR84 (membranes are pre-incubated with 0.1 μM GDP for 15 min at 4° C.), 0.1 nM [^35S]GTPγS (Perkin Elmer, NEG030) and 0.5 mg/well PVT-WGA SpA beads (Perkin Elmer, RPNQ0001)]. All components are diluted in assay buffer containing 20 mM HEPES pH 7.4; 5 mM MgCl2; 250 mM NaCl; 0.05% BSA; 75 ug/mL saponin. Reactions are incubated for 90 min at room temperature followed by centrifugation at 2000 rpm during 15 min. Plates are read on a Topcount reader (Perkin Elmer) immediately after centrifugation (readout time, 1 min/well).
For orientation: GTPγS is a poorly hydrolysed GTP analogue; its binding reports G protein activation.
One may read the IC50 as the concentration that gives 50% inhibition. A higher IC50 goes with weaker potency. The compound `CC1(COCc2ccc3c(c2)CCn2c-3cc(OC[C@@H]3COCCO3)nc2=O)COC1` [Compound 125, 2-((S)-1-[1,4]dioxan-2-ylmethoxy)-9-(3-methyl-oxetan-3-ylmethoxymethyl)-6,7-dihydro-pyrimido[6,1-a]isoquinolin-4-one] yielded an IC50 of 501 to 1000 nM. For `O=c1nc(OCC2COCCO2)cc2n1CCc1cc(C#CCCO)ccc1-2` (stereo not shown) [Compound 45, 2-([1,4]dioxan-2-ylmethoxy)-9-(4-hydroxy-but-1-ynyl)-6,7-dihydro-pyrimido[6,1-a]isoquinolin-4-one] the value was 501 to 1000 nM; for `Cc1cc(COc2ccc3c(c2)CCn2c-3cc(OCC3COCCO3)nc2=O)on1` (stereo not shown) [Compound 54, 2-([1,4]dioxan-2-ylmethoxy)-9-(3-methyl-isoxazol-5-ylmethoxy)-6,7-dihydro-pyrimido[6,1-a]isoquinolin-4-one], 101 to 500 nM; for `O=c1nc(OC[C@@H]2COCCO2)cc2n1CCc1cc(OCCF)ccc1-2` [Compound 132, 2-((S)-1-[1,4]dioxan-2-ylmethoxy)-9-(2-fluoro-ethoxy)-6,7-dihydro-pyrimido[6,1-a]isoquinolin-4-one], 501 to 1000 nM. The compound `O=c1nc(OCC2COCCO2)cc2n1CCc1cc(C#CC(O)c3cccnc3)ccc1-2` (stereo not shown) [Compound 108, 2-([1,4]dioxan-2-ylmethoxy)-9-(3-hydroxy-3-pyridin-3-yl-prop-1-ynyl)-6,7-dihydro-pyrimido[6,1-a]isoquinolin-4-one] displayed an IC50 of 0.01 to 100 nM. For `CC(C)C(O)CCc1ccc2c(c1)CCn1c-2cc(OC[C@@H]2COCCO2)nc1=O` (stereo partly drawn) [Compound 127, 2-((S)-1-[1,4]dioxan-2-ylmethoxy)-9-(3-hydroxy-4-methyl-pentyl)-6,7-dihydro-pyrimido[6,1-a]isoquinolin-4-one] the value was 0.01 to 100 nM. Consider `O=c1nc(OCC2COCCO2)cc2n1CCc1cc(C#CC3CCCCC3)ccc1-2` (stereo not shown) [Compound 82, 9-cyclohexylethynyl-2-([1,4]dioxan-2-ylmethoxy)-6,7-dihydro-pyrimido[6,1-a]isoquinolin-4-one], for which the 50% inhibitory concentration (IC50) lay within 0.01 to 100 nM. For `CC(C)(C)CCCOc1ccc2c(c1)CCn1c-2cc(OC[C@@H]2COCCO2)nc1=O` [Compound 141, 9-(4,4-dimethyl-pentyloxy)-2-((S)-1-[1,4]dioxan-2-ylmethoxy)-6,7-dihydro-pyrimido[6,1-a]isoquinolin-4-one] the value was 101 to 500 nM; for `O=c1nc(OC[C@H]2COCCO2)cc2n1CCc1cc(C#CC3(O)CCOCC3)ccc1-2` [Compound 167, 2-((R)-1-[1,4]Dioxan-2-ylmethoxy)-9-(4-hydroxy-tetrahydro-pyran-4-ylethynyl)-6,7-dihydro-pyrimido[6,1-a]isoquinolin-4-one], 501 to 1000 nM; for `O=c1nc(OCC2COCCO2)cc2n1CCc1cc(-c3ccc(N4CCCC4)nc3)ccc1-2` (stereo not shown) [Compound 74, 2-([1,4]dioxan-2-ylmethoxy)-9-(6-pyrrolidin-1-yl-pyridin-3-yl)-6,7-dihydro-pyrimido[6,1-a]isoquinolin-4-one], 0.01 to 100 nM. For `Cc1cc(-c2ccc3c(c2)CCn2c-3cc(OCC3COCCO3)nc2=O)ccn1` (stereo not shown) [Compound 65, 2-([1,4]dioxan-2-ylmethoxy)-9-(2-methyl-pyridin-4-yl)-6,7-dihydro-pyrimido[6,1-a]isoquinolin-4-one] the value was 501 to 1000 nM; for `CCOCCOc1ccc2c(c1)CCn1c-2cc(OC[C@@H]2COCCO2)nc1=O` [Compound 130, 2-((S)-1-[1,4]dioxan-2-ylmethoxy)-9-(2-ethoxy-ethoxy)-6,7-dihydro-pyrimido[6,1-a]isoquinolin-4-one], 101 to 500 nM.

As to `COC(CCc1ccc2c(c1)CCn1c-2cc(OC[C@@H]2COCCO2)nc1=O)C(C)C` (stereo partly drawn) [Compound 142, 2-((S)-1-[1,4]dioxan-2-ylmethoxy)-9-(3-methoxy-4-methyl-pentyl)-6,7-dihydro-pyrimido[6,1-a]isoquinolin-4-one], the IC50 lay in the range of 0.01 to 100 nM.
